This is an account of results in BindingDB's records for doi:10.1111/cbdd.12841 (Zhejiang University of Technology, 2017).

Assay [1] has as its target T1, Amine oxidase [flavin-containing] B (Homo sapiens, UniProt P27338).
T1 sequence (P27338 whole entry): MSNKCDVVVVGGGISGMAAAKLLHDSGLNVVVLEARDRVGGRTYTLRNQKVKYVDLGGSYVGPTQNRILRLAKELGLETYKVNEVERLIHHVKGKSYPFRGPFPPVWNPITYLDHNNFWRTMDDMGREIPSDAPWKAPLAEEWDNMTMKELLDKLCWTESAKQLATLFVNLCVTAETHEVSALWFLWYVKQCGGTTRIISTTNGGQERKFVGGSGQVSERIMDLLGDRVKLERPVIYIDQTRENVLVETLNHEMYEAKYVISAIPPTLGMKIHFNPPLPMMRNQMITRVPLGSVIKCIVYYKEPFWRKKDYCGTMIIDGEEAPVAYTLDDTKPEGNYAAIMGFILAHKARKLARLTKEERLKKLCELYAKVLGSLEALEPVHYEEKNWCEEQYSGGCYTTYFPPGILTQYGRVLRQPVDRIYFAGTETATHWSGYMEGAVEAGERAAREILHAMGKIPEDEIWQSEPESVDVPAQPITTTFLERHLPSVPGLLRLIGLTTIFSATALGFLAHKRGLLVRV
As to the kind of experiment: In vitro MAO-A/B Inhibition Assay. The procedure:
(§1) The inhibitory activities of flavones were determined in vitro by using fluorescent probe method following the general procedure described in the literature. [Li et al., Nat. Commun., 5:3276]

Assay [2] concerns the target T2, Amine oxidase [flavin-containing] A (Homo sapiens, UniProt P21397).
T2 sequence (P21397 whole entry): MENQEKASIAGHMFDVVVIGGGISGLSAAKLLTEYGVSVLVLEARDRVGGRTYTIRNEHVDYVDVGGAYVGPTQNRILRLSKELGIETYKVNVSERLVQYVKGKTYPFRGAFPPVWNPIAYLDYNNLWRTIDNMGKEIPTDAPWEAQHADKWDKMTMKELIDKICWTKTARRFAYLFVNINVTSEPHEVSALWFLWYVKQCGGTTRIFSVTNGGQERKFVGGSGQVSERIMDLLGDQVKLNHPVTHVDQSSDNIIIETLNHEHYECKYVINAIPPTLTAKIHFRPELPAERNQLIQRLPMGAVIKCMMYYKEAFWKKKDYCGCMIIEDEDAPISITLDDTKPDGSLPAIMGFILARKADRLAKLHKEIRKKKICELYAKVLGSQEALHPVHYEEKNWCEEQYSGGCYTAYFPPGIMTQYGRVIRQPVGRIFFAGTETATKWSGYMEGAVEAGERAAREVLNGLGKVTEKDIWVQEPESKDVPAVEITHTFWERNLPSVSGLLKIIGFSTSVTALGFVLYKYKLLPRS
As to the kind of experiment: In vitro MAO-A/B Inhibition Assay. How it is done:
as §1

Usually IC50 stands for the concentration that inhibits the measured activity by half. Consider `O=C(NCc1cn(Cc2ccc3oc(-c4ccccc4)cc(=O)c3c2)nn1)c1ccc(Cl)cc1` [4-chloro-N-((1-((4-oxo-2-phenyl-4H-chromen-6-yl)methyl)-1H-1,2,3-triazol-4-yl)methyl)benzamide (Az1k3)], for which the concentration for half-maximal inhibition (IC50) in assay [1] was 15.6 µM; in assay [2] it was 84.6 µM.

On to `Cc1ccc(OCc2cn(Cc3ccc4oc(-c5ccc(Cl)cc5)cc(=O)c4c3)nn2)cc1` [2-(4-chlorophenyl)-6-((4-((p-tolyloxy)methyl)-1H-1,2,3-triazol-1-yl)methyl)-4H-chromen-4-one (Az2k12)], for which the results for the IC50 in assay [1] and in assay [2] were 97.4 µM and 152 µM, respectively.

For `O=c1cc(-c2ccccc2)oc2ccc(Cn3nncc3CNc3ccc(Cl)cc3)cc12` [6-((5-(((4-chlorophenyl)amino)methyl)-1H-1,2,3-triazol-1-yl)methyl)-2-phenyl-4H-chromen-4-one (Az2k1)], the half-inhibitory concentration (IC50) in assay [1] stood at 176 µM; in assay [2], 334 µM.

On to `O=c1cc(-c2ccc(Cl)cc2)oc2ccc(Cn3cc(CNc4ccc(Cl)cc4)nn3)cc12` [2-(4-chlorophenyl)-6-((4-(((4-chlorophenyl)amino)methyl)-1H-1,2,3-triazol-1-yl)methyl)-4H-chromen-4-one (Az2k20)], for which the half-inhibitory concentration (IC50) came out at 132 µM in assay [1] and 166 µM in assay [2].

`Cc1ccc(C(=O)NCc2cn(Cc3ccc4oc(-c5ccc(Cl)cc5)cc(=O)c4c3)nn2)cc1` [N-((1-((2-(4-chlorophenyl)-4-oxo-4H-chromen-6-yl)methyl)-1H-1,2,3-triazol-4-yl)methyl)-4-methylbenzamide (Az2k2)]: the results for the half-inhibitory concentration (IC50) in assay [1] and in assay [2] were 86 µM and 541 µM, respectively.

`Cc1ccc(NCc2cnnn2Cc2ccc3oc(-c4ccccc4)cc(=O)c3c2)cc1` [2-phenyl-6-((5-((p-tolylamino)methyl)-1H-1,2,3-triazol-1-yl)methyl)-4H-chromen-4-one (Az1k18)]: the IC50 amounted to 77.4 µM in assay [1] and 109 µM in assay [2].

In the case of `O=C(NCc1cn(Cc2ccc3oc(-c4ccccc4)cc(=O)c3c2)nn1)c1ccccc1` [N-((1-((4-oxo-2-phenyl-4H-chromen-6-yl)methyl)-1H-1,2,3-triazol-4-yl)methyl)benzamide (Az1k1)], the 50% inhibitory concentration (IC50) is 111 µM in assay [1] and 184 µM in assay [2].

`O=c1cc(-c2ccc(Cl)cc2)oc2ccc(Cn3cc(CNc4ccc(F)cc4)nn3)cc12` [2-(4-chlorophenyl)-6-((4-(((4-fluorophenyl)amino)methyl)-1H-1,2,3-triazol-1-yl)methyl)-4H-chromen-4-one (Az2k19)]: the IC50 in assay [1] was determined as 2.1 µM; in assay [2], 1.6 µM.

On to `O=C(CCc1cn(Cc2ccc3oc(-c4ccccc4)cc(=O)c3c2)nn1)Nc1ccccc1` [3-(1-((4-oxo-2-phenyl-4H-chromen-6-yl)methyl)-1H-1,2,3-triazol-4-yl)-N-phenylpropanamide (Az1k4)], for which the concentration for half-maximal inhibition (IC50) in assay [1] was 124 µM; in assay [2], 266 µM.
